This note sets out measurements from paper PMC11469372, “Plasmodium SEY1 is a novel druggable target that contributes to imidazolopiperazine mechanism of action” (Research Square, 2024).

The target of experiment [1] is T1, PvSEY1 (Plasmodium vivax SEY1) (Plasmodium vivax, UniProt A5K168).
T1 construct: Full-length PvSEY1-myc-His from E. coli, Ni-NTA eluate
T1 sequence (A5K168 1-889): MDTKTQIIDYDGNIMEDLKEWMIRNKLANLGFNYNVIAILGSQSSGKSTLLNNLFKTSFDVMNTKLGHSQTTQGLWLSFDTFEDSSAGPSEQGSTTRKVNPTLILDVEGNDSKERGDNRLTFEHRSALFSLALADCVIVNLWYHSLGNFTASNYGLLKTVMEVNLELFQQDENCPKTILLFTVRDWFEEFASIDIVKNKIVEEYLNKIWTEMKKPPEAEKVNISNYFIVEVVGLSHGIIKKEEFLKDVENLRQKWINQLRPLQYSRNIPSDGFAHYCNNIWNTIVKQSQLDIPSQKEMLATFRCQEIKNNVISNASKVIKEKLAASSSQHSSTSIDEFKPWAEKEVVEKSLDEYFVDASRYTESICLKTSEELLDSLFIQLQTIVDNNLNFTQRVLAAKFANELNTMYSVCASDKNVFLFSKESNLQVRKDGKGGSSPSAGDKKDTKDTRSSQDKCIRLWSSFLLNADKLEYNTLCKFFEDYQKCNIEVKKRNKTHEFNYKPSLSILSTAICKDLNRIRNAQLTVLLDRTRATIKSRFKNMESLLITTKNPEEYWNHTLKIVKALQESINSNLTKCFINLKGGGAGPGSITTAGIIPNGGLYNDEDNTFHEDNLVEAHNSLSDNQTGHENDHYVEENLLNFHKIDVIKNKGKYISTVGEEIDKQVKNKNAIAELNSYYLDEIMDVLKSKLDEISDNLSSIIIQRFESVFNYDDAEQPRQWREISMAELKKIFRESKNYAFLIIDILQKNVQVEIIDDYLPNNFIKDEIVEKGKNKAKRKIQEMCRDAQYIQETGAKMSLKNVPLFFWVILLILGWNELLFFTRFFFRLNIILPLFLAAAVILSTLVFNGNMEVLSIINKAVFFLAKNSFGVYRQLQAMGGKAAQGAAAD
In words: GTPase assay (EnzChek free phosphate) at […] GNF179; also destabilized in lysate thermal shift assay. Type of experiment: biochemical.

The target of another experiment is T2, HsFLOT1 (Homo sapiens, UniProt O75955).
T2 construct: gene FLOT1
T2 sequence (O75955 1-427): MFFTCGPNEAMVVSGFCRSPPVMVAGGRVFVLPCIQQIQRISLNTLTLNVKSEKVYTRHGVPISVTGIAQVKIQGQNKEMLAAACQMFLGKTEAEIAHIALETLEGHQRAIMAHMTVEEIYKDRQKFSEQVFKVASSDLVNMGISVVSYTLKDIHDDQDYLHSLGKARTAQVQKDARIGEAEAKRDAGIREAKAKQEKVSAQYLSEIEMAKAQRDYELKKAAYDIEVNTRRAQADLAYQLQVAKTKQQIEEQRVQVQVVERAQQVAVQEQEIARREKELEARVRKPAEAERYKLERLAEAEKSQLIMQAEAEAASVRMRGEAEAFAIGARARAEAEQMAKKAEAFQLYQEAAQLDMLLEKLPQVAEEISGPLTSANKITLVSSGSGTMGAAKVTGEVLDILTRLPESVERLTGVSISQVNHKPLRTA
Put plainly: proteomic affinity chromatography with GNF179 beads, competition with free GNF179 (TMT MS/MS), lysate. The format is biochemical.

Experiment [2] has as its target T3, PkSEY1 (Plasmodium knowlesi SEY1) (Plasmodium knowlesi, UniProt B3LAJ9).
T3 construct: Full-length, His-tagged (recombinant)
Put plainly: surface plasmon resonance (Biacore […], NTA chip). The format is binding. (SPR reads the build-up and loss of mass on a sensor chip optically.)

A further experiment concerns the target T4, PfSTOML (Plasmodium falciparum, UniProt O77376).
T4 construct: gene PF3D7_0318100
In words: proteomic affinity chromatography with GNF179 beads, competition with free GNF179 (TMT MS/MS), parasite lysate. Type of experiment: biochemical.

A further experiment addresses T5, HsFLOT2 (Homo sapiens, UniProt Q14254).
T5 construct: gene FLOT2
T5 sequence (Q14254 2-428): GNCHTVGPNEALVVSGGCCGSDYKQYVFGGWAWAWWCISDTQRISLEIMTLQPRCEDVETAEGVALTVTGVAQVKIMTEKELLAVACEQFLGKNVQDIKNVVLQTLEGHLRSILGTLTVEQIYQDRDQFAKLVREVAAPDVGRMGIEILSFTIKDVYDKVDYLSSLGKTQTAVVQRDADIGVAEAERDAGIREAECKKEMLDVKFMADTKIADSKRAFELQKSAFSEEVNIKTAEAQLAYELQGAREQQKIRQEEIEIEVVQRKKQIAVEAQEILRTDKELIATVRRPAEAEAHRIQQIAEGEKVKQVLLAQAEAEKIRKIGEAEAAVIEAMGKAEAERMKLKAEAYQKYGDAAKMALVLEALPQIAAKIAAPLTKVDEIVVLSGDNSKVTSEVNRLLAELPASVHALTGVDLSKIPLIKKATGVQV
Put plainly: proteomic affinity chromatography with GNF179 beads, competition with free GNF179 (TMT MS/MS), lysate. Type of experiment: biochemical.

T4 sequence (O77376 entry or part of it): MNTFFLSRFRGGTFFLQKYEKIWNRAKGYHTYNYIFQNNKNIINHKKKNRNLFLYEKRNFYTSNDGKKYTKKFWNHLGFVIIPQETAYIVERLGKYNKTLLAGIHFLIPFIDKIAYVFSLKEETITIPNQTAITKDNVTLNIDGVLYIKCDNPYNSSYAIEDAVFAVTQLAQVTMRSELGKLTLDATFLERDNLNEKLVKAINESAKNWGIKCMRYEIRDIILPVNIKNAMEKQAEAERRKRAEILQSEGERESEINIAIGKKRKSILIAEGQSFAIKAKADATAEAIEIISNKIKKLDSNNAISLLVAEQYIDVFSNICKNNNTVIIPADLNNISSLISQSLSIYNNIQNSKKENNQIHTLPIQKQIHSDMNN
T3 sequence (B3LAJ9 whole entry): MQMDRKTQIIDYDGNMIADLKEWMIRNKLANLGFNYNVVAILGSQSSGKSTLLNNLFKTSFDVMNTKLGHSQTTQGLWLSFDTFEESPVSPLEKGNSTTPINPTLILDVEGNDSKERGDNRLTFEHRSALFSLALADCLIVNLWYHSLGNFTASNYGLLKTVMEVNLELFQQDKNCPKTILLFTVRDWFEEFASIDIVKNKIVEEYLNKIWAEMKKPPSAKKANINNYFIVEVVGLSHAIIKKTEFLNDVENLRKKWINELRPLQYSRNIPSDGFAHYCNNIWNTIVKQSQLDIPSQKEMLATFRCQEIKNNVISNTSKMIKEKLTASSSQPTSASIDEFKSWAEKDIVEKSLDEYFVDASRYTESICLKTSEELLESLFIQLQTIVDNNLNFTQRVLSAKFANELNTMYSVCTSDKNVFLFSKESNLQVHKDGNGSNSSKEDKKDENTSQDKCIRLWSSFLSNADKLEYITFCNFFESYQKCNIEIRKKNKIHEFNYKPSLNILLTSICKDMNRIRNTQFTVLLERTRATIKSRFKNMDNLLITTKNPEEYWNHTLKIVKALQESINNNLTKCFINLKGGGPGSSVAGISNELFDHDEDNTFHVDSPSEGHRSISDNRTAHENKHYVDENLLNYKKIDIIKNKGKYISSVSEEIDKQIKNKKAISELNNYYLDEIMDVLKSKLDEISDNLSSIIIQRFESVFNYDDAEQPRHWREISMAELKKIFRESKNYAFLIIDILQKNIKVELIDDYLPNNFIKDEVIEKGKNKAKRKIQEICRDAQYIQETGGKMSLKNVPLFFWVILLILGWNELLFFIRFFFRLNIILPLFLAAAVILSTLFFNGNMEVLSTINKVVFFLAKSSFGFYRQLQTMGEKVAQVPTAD

Consider `CC1(C)c2nc(-c3ccc(F)cc3)c(Nc3ccc(Cl)cc3)n2CCN1C(=O)CN` [GNF179], for which, in experiment [1], the “GTPase assay (EnzChek free phosphate) at 125 μM GNF179; also destabilized in lys” value is reported as “These results indicate a reduction of PvSEY1 GTPase activity by GNF179”. Moreover, the Kd (as a rule, the equilibrium constant for the complex coming apart) on HsFLOT1 was determined as 340 nM; in experiment [2], 144000 nM; at PfSTOML, 3170 nM; on HsFLOT2, 390 nM.
